Source: the supplement of paper PMC10307832

Experiments:
Test in all cases: relative viability (nuclei count vs DMSO), 5 days (fraction); higher = more cells survive
[1] = compound: COC1=CC=C(C=C1)CN2C=CC3=C2C=C(C=C3)C(=O)NO + O=C(c1cc(Cc2n[nH]c(=O)c3ccccc23)ccc1F)N1CCN(C(=O)C2CC2)CC1 [Olaparib] (partner 8 µM)
How it was run: (§1)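 Lung cancer cell lines in 1536-well plates were dosed by pin tool the day after seeding, either with one drug alone or with a fixed anchor-drug dose plus five library-drug doses (not always all listed) in √10 steps. After 5 days, cells were fixed and their nuclei stained in one step (final 0.05% Triton X-100, 1% formaldehyde, 1 ug/ml Hoechst), then counted on 4× images. Relative viability is the nuclei count in treated wells divided by that in vehicle wells. Values are medians of duplicate plates.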

[2] = compound: C[C@]1(c2nc3c(C(N)=O)cccc3[nH]2)CCCN1 [Veliparib] + CC(=O)Nc1cccc(-n2c(=O)n(C3CC3)c(=O)c3c(Nc4ccc(I)cc4F)n(C)c(=O)c(C)c32)c1 [Trametinib] (partner 0.02 µM)
How it was run: as §1

[3] = compound: C[C@]1(c2nc3c(C(N)=O)cccc3[nH]2)CCCN1 [Veliparib] + COc1cccc2cc(-c3nc([C@H]4CC[C@H](C(=O)O)CC4)n4ncnc(N)c34)[nH]c12 [OSI-027] (partner 0.5 µM)
How it was run: as §1

[4] = compound: C[C@]1(c2nc3c(C(N)=O)cccc3[nH]2)CCCN1 [Veliparib] + C[C@@H](Oc1cc(-c2cnn(C3CCNCC3)c2)cnc1N)c1c(Cl)ccc(F)c1Cl [Crizotinib] (partner 1 µM)
How it was run: as §1

Cell Line	relative viability ([1]; first compound 0.08 µM)	relative viability ([1]; first compound 0.253 µM)	relative viability ([1]; first compound 0.8 µM)	relative viability ([1]; first compound 2.53 µM)	relative viability ([1]; first compound 8 µM)	relative viability ([2]; first compound 0.02 µM)	relative viability ([2]; first compound 0.6325 µM)	relative viability ([2]; first compound 2 µM)	relative viability ([3]; first compound 0.02 µM)	relative viability ([3]; first compound 0.06325 µM)	relative viability ([3]; first compound 0.2 µM)	relative viability ([3]; first compound 0.6325 µM)	relative viability ([3]; first compound 2 µM)	relative viability ([2]; first compound 0.06325 µM)	relative viability ([2]; first compound 0.2 µM)	relative viability ([4]; first compound 0.06325 µM)	relative viability ([4]; first compound 0.2 µM)	relative viability ([4]; first compound 0.6325 µM)	relative viability ([4]; first compound 2 µM)	relative viability ([4]; first compound 0.02 µM)
NCI-H1648	0.81	0.725	0.964	0.932	0.651	0.631	0.557	0.516	0.255	0.262	0.249	0.278	0.251							
NCI-H358		0.614	0.59	0.544	0.49	0.0965	0.115	0.152	0.496	0.715	0.796	0.611	0.698	0.12	0.195	0.533	0.564	0.523	0.618	
IA-LM	0.755	0.846	0.954	0.902	0.833											0.689	0.743	0.753	0.75	0.947
201T	0.846	0.833	0.881	0.844	0.832	0.762	0.746	0.738	0.659	0.58	0.713	0.759	0.722	0.719	0.699	0.978	0.964	0.992	0.997	1.03
LOU-NH91		0.95	0.928	0.903	0.894	0.814	0.725	0.811	0.716	0.669	0.688	0.726	0.74	0.789	0.793	0.719	0.745	0.688	0.774	0.729
ChaGo-K-1		0.459	0.424	0.409	0.324	0.673	0.857	0.905	0.266	0.519	0.513	0.589	0.55	0.842	0.923	1.05	1.08	1.06	1.09	
NCI-H441	0.441	0.58	0.526	0.497	0.609	0.489	0.477	0.568	0.622	0.539	0.553	0.585	0.617	0.497	0.488	0.645	0.745	0.593	0.63	0.663
ABC-1		0.745	0.73	0.734	0.87					0.429	0.618	0.493	0.312			0.987	0.846	0.953	0.962	
NCI-H661		0.726	0.778	0.67	0.66	0.525	0.543	0.64	0.751	0.704	0.743	0.669	0.657	0.646	0.584	0.884	0.909	0.885	0.963	0.91
BEN	1.09	1.03	0.95	0.913	0.924	1.11	1.01	1.08	0.288	0.315	0.294	0.296	0.3	1.11	1.06	0.97	1.01	0.783	0.884	0.735
UMC-11	0.373	0.355	0.415	0.911	0.373	0.7	0.682	0.635	0.508	0.471	0.472	0.469	0.415	0.759	0.707	0.654	0.595	0.547	0.577	0.549
NCI-H2023	0.453	0.475	0.464	0.433	0.413		0.563	0.477	0.339	0.398	0.442	0.347	0.432	0.636	0.563	0.616	0.635	0.567	0.601	0.567
NCI-H2126	0.869	0.945	0.961	0.956	0.874	0.571	0.526	0.531	0.647	0.608	0.747	0.749	0.679	0.512	0.574	1.02	0.988	0.988	0.933	0.966
EMC-BAC-2	0.315		0.524	0.471	0.445	1.01	0.752	0.913	0.346	0.318	0.379	0.349	0.345		0.922	0.649	0.754	0.737	0.779	0.771
NCI-H838	0.622	0.843	0.796	0.735	0.696	0.566	0.524	0.521	0.419	0.328	0.409	0.296	0.372	0.501	0.54	0.9	0.851	0.83	0.895	0.859
NCI-H322M			0.805	0.845	0.621		0.5	0.494		0.48	0.526	0.557	0.482	0.52	0.465	0.83	0.948	0.919	0.945	0.895
HCC-15	0.635	0.71	0.729	0.846	0.728	0.422	0.357	0.4		0.641	0.7	0.619	0.603	0.374	0.429	0.86	0.847	0.752	0.825	0.803
NCI-H1395		0.419	0.49	0.496	0.436	0.995	0.899	0.857	0.494	0.576	0.548	0.579	0.523	0.96	0.924					
NCI-H596	0.66	0.778	0.735	0.805	0.725	0.83	0.806	0.793	0.805	0.696	0.779	0.783	0.68	0.666	0.77	0.912	1.06	0.862	0.957	1.05
PC-3 [JPC-3]	1.1		1.11	1.19	1.14	0.596	0.685	0.682	0.773	0.74	0.813	0.755	0.755		0.749	0.961	0.914	0.96	0.985	0.996

Cell Line	relative viability ([1]; first compound 0.08 µM)	relative viability ([1]; first compound 0.253 µM)	relative viability ([1]; first compound 0.8 µM)	relative viability ([1]; first compound 2.53 µM)	relative viability ([1]; first compound 8 µM)	relative viability ([2]; first compound 0.02 µM)	relative viability ([2]; first compound 0.6325 µM)	relative viability ([2]; first compound 2 µM)	relative viability ([3]; first compound 0.02 µM)	relative viability ([3]; first compound 0.06325 µM)	relative viability ([3]; first compound 0.2 µM)	relative viability ([3]; first compound 0.6325 µM)	relative viability ([3]; first compound 2 µM)	relative viability ([2]; first compound 0.06325 µM)	relative viability ([2]; first compound 0.2 µM)	relative viability ([4]; first compound 0.06325 µM)	relative viability ([4]; first compound 0.2 µM)	relative viability ([4]; first compound 0.6325 µM)	relative viability ([4]; first compound 2 µM)	relative viability ([4]; first compound 0.02 µM)
NCI-H23	0.302	0.282	0.314	0.322	0.304	0.448	0.4	0.469	0.652	0.393	0.587	0.518	0.737	0.413	0.509	0.521	0.606	0.596	0.625	0.52
SK-MES-1	0.788	0.665	0.676	0.64	0.598	0.531	0.53	0.627	0.618	0.527	0.686	0.588	0.638	0.54	0.525	0.901	0.951	0.854	0.956	0.973
NCI-H1651	0.168	0.158	0.194	0.182	0.179	0.844	0.77	0.8	0.699	0.626	0.619	0.659	0.697	0.836	0.785	0.853	0.805	0.799	0.83	0.926
SK-LU-1	0.436	0.443	0.627	0.449	0.422	0.561	0.524	0.415	0.388	0.316	0.381	0.307	0.343	0.519	0.607	0.924	1.07	0.848	0.803	1.15
NCI-H727	0.68	0.709	0.755	0.649	0.622	0.379	0.428	0.416	0.527	0.439	0.648	0.494	0.537	0.39	0.42	0.685	0.855	0.668	0.764	0.814
NCI-H3122	0.624	0.642	0.616	0.6	0.583	0.181	0.208	0.233	0.829	0.923	0.935	0.96	0.991	0.186	0.214	0.297	0.26	0.268	0.304	0.247
HOP-62		0.47	0.489	0.396	0.384	0.375	0.39	0.407	0.756	0.734	0.798	0.792	0.761	0.322	0.351	0.795	0.836	0.866	0.933	0.981
LC-2-ad	0.696	0.343	0.681	0.688	0.709	0.897	0.891	0.912		0.758	0.781	0.792	0.87	0.904	0.914	0.396	0.483	0.46	0.443	0.458
NCI-H1703		0.581	0.817	0.491	0.46											0.76	1.06	0.778	0.75	0.835
EBC-1		0.656	0.748	0.695	0.633											0.231	0.213	0.186	0.233	0.194
NCI-H522		0.669	0.693	0.65	0.568	0.716	0.771	1.01	0.679	0.731	0.888	0.689	0.732	0.608	0.805					
A549		0.38	0.39	0.337	0.252											0.699	0.792	0.61	0.891	0.768
NCI-H1563									0.672	0.741	0.799	0.751	0.77			0.762	0.89	0.857	0.808	0.91
NCI-H2342	0.437	0.449	0.457	0.442	0.373	0.76	0.742	0.736	0.586	0.558	0.649	0.687	0.572	0.81	0.701					
NCI-H1623									0.384	0.362	0.425	0.42	0.431							
SW 900	0.759	0.956	0.769	0.849	0.604		0.621	0.828			0.675	0.582	0.413	0.75	0.938					
NCI-H1793		0.911	0.898	0.893	0.865	0.476	0.361	0.465	0.317	0.265	0.31	0.286	0.262	0.417	0.474					
NCI-H1299	1.04	0.98	0.948	1.03	0.92											0.945	0.95	0.928	0.948	1.04
Calu-6		0.544	0.556	0.602	0.51											0.735	0.882	0.691	0.796	0.817
